Experimental data taken from patent US5565566A (Discovery Therapeutics, Inc., priority 1995, dated 1996).
Like-named read-outs stand apart in the source and are kept apart here. Values belong to the compound of their own block, whether it stands above or below them.

Tests used:
A2 adenosine receptors = test: antagonism of adenosine agonists: decrease in contractile tone of guinea pig taenia caecum (A2); conditions: for selectivity for A1 adenosine receptors (functional tissues): atrium (A1) vs taenia caecum (A2); for antagonism of the effects of adenosine agonists in relaxing the taenia caecum: modified Schild plots; for sensitization of the tissue (larger agonist response): taenia caecum, high concentrations of the compound
Method: Taenia from the guinea pig caecum were cut into lengths of 1.5-2 cm. The tissues were suspended in a 20 ml organ bath containing de Jalon's solution that was gassed with 95% O2 +5% CO2 and maintained at 31° C. […] The contractile response was measured isotonically. […] The ability of the compounds to antagonize the effects of agonists was analyzed using modified Schild plots.

[1] = biological target: T1, rat cortical A1 receptors (Rattus norvegicus, UniProt P25099); test: displacement of [3H]-CHA from rat cortical A1 receptors; assay type: binding; conditions: [3H]-CHA; rat cortical A1 receptors; read-out: Rat Cortical Binding Constant Ki
T1 construct: rat cortical membranes were the receptor source; from tissue; host or cells: rat cerebral cortex (male Sprague Dawley) membranes
T1 sequence (P25099 1-326): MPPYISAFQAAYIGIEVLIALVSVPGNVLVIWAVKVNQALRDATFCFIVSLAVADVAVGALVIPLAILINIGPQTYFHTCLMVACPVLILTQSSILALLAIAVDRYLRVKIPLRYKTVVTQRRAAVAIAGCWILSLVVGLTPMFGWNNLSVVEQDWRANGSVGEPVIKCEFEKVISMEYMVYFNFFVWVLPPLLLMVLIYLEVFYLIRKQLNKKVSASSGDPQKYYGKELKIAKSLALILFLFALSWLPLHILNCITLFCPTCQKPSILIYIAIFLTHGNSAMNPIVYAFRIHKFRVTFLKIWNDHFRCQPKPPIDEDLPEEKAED
Method: (§1) Varying concentrations of test compounds were incubated with the appropriate radioligand and membrane source for 1 hr at room temperature.
(§2) Assays were terminated by filtration over Whatman GF/B filters that had been pre-soaked with 0.1% polyethyleneimine using a 24 port Brandell cell havester. The filters were washed three times with 3 ml of ice cold buffer and transfered to plastic scintillation vials to which 4 ml of Beckman Ready protein scintillation cocktail was added. The tubes were shaken and counted in a Beckman 3801 scintillation counter that converted cpm to dpm.
(§3) Data were analyzed by utilizing the Ligand, commercial computer program (Munson and Rodbard, 1980).
(§4) Male Sprague Dawley rats were killed by decapitation and the brains removed. The cerebral cortices were homogenized in 50 mm Tris; 2mm MgCl2 (pH 7.4), and centrifuged at 40,000×g for 10 minutes. […] The homogenate was centrifuged, washed once, resuspended to a protein concentration of 5-10 mg/ml and frozen at -70° C. until use.

A1 receptors [2] = biological target: T2, A1 receptors (Rattus norvegicus, UniProt P25099); test: in vivo test on heart rate / ECG of anesthetized rats
T2 sequence (P25099 1-326): T1 sequence (P25099 1-326)
Method: (§5) Rats were anesthetized with urethan and blood pressure was monitored via a carotid cannula. Drug injections were made intravenously through a jugular cannula. Blood pressure, EGC, and heart rate were recorded on a Grass polygraph.

A1 adenosine receptors = biological target: T3, A1 adenosine receptors (Cavia porcellus, UniProt P47745); test: antagonism of adenosine agonists: reduction in force of contraction of guinea pig atrium (A1); conditions: for competitive antagonism at adenosine receptors in the atria / basal force of contraction in the atria: guinea pig atria
T3 construct: The left atria from male guinea pigs were isolated; from tissue; host or cells: guinea pig left atrium
T3 sequence (P47745 1-326): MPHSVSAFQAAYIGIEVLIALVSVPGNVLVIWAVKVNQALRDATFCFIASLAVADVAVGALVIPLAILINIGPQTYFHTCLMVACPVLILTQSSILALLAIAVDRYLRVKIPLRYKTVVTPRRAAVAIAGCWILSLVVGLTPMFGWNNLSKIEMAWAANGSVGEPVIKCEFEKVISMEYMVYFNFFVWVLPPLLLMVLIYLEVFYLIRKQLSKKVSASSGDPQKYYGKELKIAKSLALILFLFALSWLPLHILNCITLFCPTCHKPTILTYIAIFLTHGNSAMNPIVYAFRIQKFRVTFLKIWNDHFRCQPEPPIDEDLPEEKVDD
Method: The left atria from male guinea pigs were isolated, suspended between two punctate electrodes, and placed in a 20 ml organ bath that contained Krebs-[…] solution that was continuously gassed with 95% O2 +5% CO2 and maintained at 31° C. The resting tension was one gram. The atria were stimulated electrically at 1 Hz, 1 msec duration pulses at supramaximal voltage. The force of contraction was recorded isometrically. The ability of the compounds to antagonize the effects of agonists was analyzed using modified Schild plots.

A1 receptors [3] = biological target: T2, A1 receptors; test: [3H]-CHA binding, rat cortical membranes (A1), selectivity experiment of Table 4; design: Rat Brain Membranes; from tissue; host or cells: rat brain (membranes)
Method: as §1, §2, §3, §4

A2 receptors [4] = biological target: T4, A2 receptors (Bos taurus, UniProt E1BKU0); test: [3H]-NECA binding, bovine caudate membranes (A2); conditions: Table 4, with 50 nM cyclopentyl-adenosine
T4 construct: bovine caudate was the source of membranes; from tissue; host or cells: bovine caudate nuclei (membranes)
Method: Further tests to discover the affinities of test compounds at A2 receptors were conducted.
To provide bovine caudate nuclei, bovine brains were obtained fresh from a local slaughterhouse. The caudate nuclei were dissected out and homogenized in Buffer A (50 mm Tris; 1 mm Na2-EDTA; 5 mm KCl; 1 mm MgCl2; 2 mm CaCl2; pH 7.4) using a Brinkman Polytron. The homogenate was centrifuged at 40,000×g for 20 minutes and washed once. The pellet was resuspended in Buffer A, incubated at 37° C. for 15 minutes, then centrifuged. The pellet was washed once more, resuspended to a protein concentration of 5-10 mg/ml in Buffer A and frozen at -70° C. until use.
as §1, §2, §3

A2 receptors [5] = test: in vivo test on blood pressure of anesthetized rats; conditions: prior administration, anesthetized rat
Method: as §5

adenosine receptor = conditions: cited from earlier work
A1 receptors [6] = biological target: T2, A1 receptors; test: prevention of R-PIA-induced inhibition of adenylate cyclase in rat fat cell membranes (C); assay type: biochemical; design: from tissue
Method: (§6) For activity at A1 receptors, compounds were tested as inhibitors of the binding of N^6 -[…]-[3H]-Phenylisopropyladenosine in rat brain membranes and for their ability to prevent R-PIA-induced inhibition of adenylate cyclase in rat fat cell membranes.
(C) Rat Fat Cell Membranes

A1 receptors [7] = biological target: T2, A1 receptors; test: inhibition of binding of [3H]-phenylisopropyladenosine in rat brain membranes (D); design: Rat Brain Membranes; from tissue; host or cells: rat brain (membranes)
Method: as §6
(D) Rat Brain Membranes

[8] = system: adenosine-induced cyclic Amp accumulation in a human fibroblast cell line; conditions: low concentrations; cited from earlier work
A2 receptors [9] = biological target: T5, A2 receptors (Rattus norvegicus, UniProt P30543); test: antagonism of NECA-stimulated adenylate cyclase in rat PC12 membranes (B); assay type: biochemical
T5 construct: Rat PC12 Membranes; endogenous in cells; host or cells: PC12

A2 receptors [10] = conditions: vs N^6 -substituted adenosine analogs; cited from earlier work
A2 receptors [11] = biological target: T6, A2 receptors (Homo sapiens, UniProt P29274); test: antagonism of NECA-stimulated adenylate cyclase in human platelet membranes (A); assay type: biochemical; conditions: for Kb: (A) Human Platelet Membranes, A2 Effects
T6 construct: Human Platelet Membranes; from tissue; host or cells: human platelets (membranes)

[12] = (C) Rat Fat Cell Membranes, A1 Effects, read-out: KB vs PIA INHIBITION (Adenylate Cyclase)
[13] = guinea pig atrium, modified Schild plots
[14] = (B) Rat PC12 Membranes, A2 Effects

T5 sequence (P30543 whole entry): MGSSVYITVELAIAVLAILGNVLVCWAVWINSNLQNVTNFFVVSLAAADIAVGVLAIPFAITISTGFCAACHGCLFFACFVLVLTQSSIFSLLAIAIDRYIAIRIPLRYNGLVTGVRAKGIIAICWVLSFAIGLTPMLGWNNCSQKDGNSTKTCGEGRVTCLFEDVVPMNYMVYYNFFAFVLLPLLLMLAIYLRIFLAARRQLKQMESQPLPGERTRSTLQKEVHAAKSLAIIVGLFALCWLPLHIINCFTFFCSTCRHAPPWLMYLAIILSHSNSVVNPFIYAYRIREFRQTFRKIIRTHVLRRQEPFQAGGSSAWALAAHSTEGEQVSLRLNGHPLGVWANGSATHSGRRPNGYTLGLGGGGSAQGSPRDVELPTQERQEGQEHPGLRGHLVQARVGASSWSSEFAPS
T6 sequence (P29274 whole entry): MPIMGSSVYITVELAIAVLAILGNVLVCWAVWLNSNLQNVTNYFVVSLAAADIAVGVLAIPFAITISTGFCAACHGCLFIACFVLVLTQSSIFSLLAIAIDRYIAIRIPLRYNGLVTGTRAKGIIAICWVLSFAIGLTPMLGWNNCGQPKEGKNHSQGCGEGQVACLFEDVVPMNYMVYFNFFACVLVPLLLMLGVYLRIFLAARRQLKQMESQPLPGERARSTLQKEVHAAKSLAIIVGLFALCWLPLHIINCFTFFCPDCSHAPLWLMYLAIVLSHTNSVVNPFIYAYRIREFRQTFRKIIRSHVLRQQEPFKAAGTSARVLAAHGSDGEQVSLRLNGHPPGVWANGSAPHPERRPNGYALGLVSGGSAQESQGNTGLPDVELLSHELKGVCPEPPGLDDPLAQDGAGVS
T4 sequence (E1BKU0 1-401): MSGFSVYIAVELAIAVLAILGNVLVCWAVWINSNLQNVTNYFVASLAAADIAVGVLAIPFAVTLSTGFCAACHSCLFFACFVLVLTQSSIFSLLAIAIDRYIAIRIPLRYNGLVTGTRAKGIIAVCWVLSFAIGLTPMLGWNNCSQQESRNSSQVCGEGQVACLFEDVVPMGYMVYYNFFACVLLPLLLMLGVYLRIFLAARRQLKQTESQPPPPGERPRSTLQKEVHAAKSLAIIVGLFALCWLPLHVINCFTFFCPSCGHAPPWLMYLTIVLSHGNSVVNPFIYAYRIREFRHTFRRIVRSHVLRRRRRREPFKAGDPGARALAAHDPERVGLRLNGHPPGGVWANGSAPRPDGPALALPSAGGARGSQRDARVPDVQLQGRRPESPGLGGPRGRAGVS

SMILES: Cn1cnc2c(N[C@H]3C[C@H]4CC[C@@H]3C4)ncnc21 (relative stereo) [compound 0861, N^6-(endo-2-Norbornyl)-9-Methyladenine]
- selectivity for A1 adenosine receptors (functional tissues) (A2 adenosine receptors): selective for A1 adenosine receptors
- antagonism of the effects of adenosine agonists in relaxing the taenia caecum (A2 adenosine receptors): did not competitively antagonize the effects of adenosine agonists in relaxing the taenia caecum
- sensitization of the tissue (larger agonist response) (A2 adenosine receptors): some sensitization of the tissue
- Ki [1]: 0.116 µM
- cardio-selectivity in vivo (A1 receptors [2]): cardio-selective adenosine receptor antagonist in vivo
- effects of subsequently administered adenosine on all parameters measured (blood pressure, heart rate, P-R interval) (A1 receptors [2]; intravenous): attenuated the effects of subsequently administered adenosine on all parameters measured
- heart block caused by high doses of adenosine (A1 receptors [2]; intravenous): substantially reduced
- effects of NECA on the heart (A1 receptors [2]; prior administration): attenuated the effects of NECA on the heart
- potency ranking as antagonist (A1 adenosine receptors; among the Table 2 examples): the most potent antagonist
- competitive antagonism at adenosine receptors in the atria (A1 adenosine receptors): competitive antagonists at adenosine receptors in the atria
- selectivity for A1 receptors over A2 receptors (A1 receptors [3]; A1 vs A2): 170 fold
- Ki (A1 receptors [3]; Table 4, [3H]-CHA, rat cortical membranes per text): 0.041 µM
- Ki (A2 receptors [4]): 6.96 µM
- NECA-induced decrease in blood pressure (A2 receptors [5]): minimally affecting the NECA-induced decrease in blood pressure

SMILES: Cn1c(=O)c2[nH]c(-c3ccccc3)nc2n(C)c1=O [8-phenyltheophylline (8-PT), 8-phenyltheophylline, reference compound]
- antagonism of the effects of adenosine agonists in relaxing the taenia caecum (A2 adenosine receptors): did antagonize the effects of agonists at low concentrations
- sensitization of the tissue (larger agonist response) (A2 adenosine receptors): Sensitization is also observed
- selectivity among adenosine receptors (adenosine receptor): non-selective adenosine receptor antagonist

SMILES: Nc1ncnc2nc[nH]c12 [Adenine, reference compound]
- Kb (A1 receptors [6]): > 1000 µM
- Ki (A1 receptors [7]): > 100 µM
- antagonism of adenosine-induced cyclic Amp accumulation [8]: specific competitive antagonism
- Kb (A2 receptors [9]): 570 µM

SMILES: Nc1ncnc2c1ncn2[C@@H]1O[C@H](CO)[C@@H](O)[C@H]1O [Adenosine, reference compound]
- heart block at high doses (A1 receptors [2]; high doses): causes heart block

SMILES: CCNC(=O)[C@H]1O[C@@H](n2cnc3c(N)ncnc32)[C@H](O)[C@@H]1O [NECA, 5'-N-ethylcarboxamido-adenosine]
- potency at A2 receptors (A2 receptors [10]): more potent than N^6 -substituted analogs

- Kb (A1 adenosine receptors; guinea pig atrium, modified Schild plots, read-out: affinity constant pKB (converted)): 4.37 µM
SMILES: CCC(Cc1cccs1)Nc1ncnc2c1ncn2C (centres unmarked) [N^6-1-(2-Thienyl)-2-butyl)-9-MA, N^6-1-(2-Thienyl)-2-butyl-9-MA]
- basal force of contraction in the atria (A1 adenosine receptors): increases in basal force of contraction in the atria
- competitive antagonism at adenosine receptors in the atria (A1 adenosine receptors): competitive antagonists at adenosine receptors in the atria

- Kb (A1 receptors [6]; [12]): 7.6 µM
- selectivity for A1 adenosine receptors (functional tissues) (A2 adenosine receptors): selective for A1 adenosine receptors
- Kb (A2 receptors [11]): 11 µM
- Ki (A1 receptors [7]; (D) Rat Brain Membranes, A1 Effects, read-out: Ki vs [^3 H] PI (Binding)): 3.3 µM
- affinity constant pKB (A1 adenosine receptors; [13]): 5.4 ± 0.14
- Kb (A2 receptors [9]; [14]): 53 µM
SMILES: CCC(CC)Nc1ncnc2c1ncn2C [N^6-3-Pentyl-9-MA, N^6-3-Pentyl-9-Methyladenine]
- antagonism of the effects of adenosine agonists in relaxing the taenia caecum (A2 adenosine receptors): did not competitively antagonize the effects of adenosine agonists in relaxing the taenia caecum
- sensitization of the tissue (larger agonist response) (A2 adenosine receptors): some sensitization of the tissue
- basal force of contraction in the atria (A1 adenosine receptors): increases in basal force of contraction in the atria
- competitive antagonism at adenosine receptors in the atria (A1 adenosine receptors): competitive antagonists at adenosine receptors in the atria

- Kb (A1 receptors [6]; [12]): 1.3 µM
- selectivity for A1 adenosine receptors (functional tissues) (A2 adenosine receptors): selective for A1 adenosine receptors
- Kb (A2 receptors [11]): 4.9 µM
- potency relative to 9-methyladenine at A2 receptors (A2 receptors [11]; human platelet assay, vs 9-methyladenine): 5 fold
- potency relative to 9-methyladenine at A1 receptors (A1 receptors [7]; A1 receptors, vs 9-methyladenine): at least 100 fold
- Ki [1]: 0.375 µM
- affinity constant pKB (A1 adenosine receptors; [13]): 6.17 ± 0.11
- Kb (A2 receptors [9]; [14]): 25 µM
SMILES: Cn1cnc2c(NC3CCCC3)ncnc21 [compound 0840, N^6 -Cyclopentyl-9-Methyl Adenine]
- antagonism of the effects of adenosine agonists in relaxing the taenia caecum (A2 adenosine receptors): did not competitively antagonize the effects of adenosine agonists in relaxing the taenia caecum
- sensitization of the tissue (larger agonist response) (A2 adenosine receptors): some sensitization of the tissue
- competitive antagonism at adenosine receptors in the atria (A1 adenosine receptors): competitive antagonists at adenosine receptors in the atria
